Laboratory results as given in paper PMC11249646, “Small-Molecule Disruptors of the Interaction between Calcium- and Integrin-Binding Protein 1 and Integrin αIIbβ3 as Novel Antiplatelet Agents” (ACS Pharmacology & Translational Science, 2024).
Where two headings read alike, the source gives them in different places.

Key:
Type in all cases: binding
[1] = biological target: T1, CIB1 and αIIb interaction (GST-CIB1 : F-αIIb peptide) (Homo sapiens, UniProt Q99828); test: FP assay, 384-well format (screen); set-up: 384-well SCREEN Efficacy (%): concentration or dose not given beside the values; conditions: F-αIIb peptide; for 384-well SCREEN Confirm?: YES/NO; for IC50: read-out: 384-well SCREEN IC50
T1 construct: made in house; host or cells: BL-21 plus RIL cells (E. coli)
T1 sequence (Q99828 1-191): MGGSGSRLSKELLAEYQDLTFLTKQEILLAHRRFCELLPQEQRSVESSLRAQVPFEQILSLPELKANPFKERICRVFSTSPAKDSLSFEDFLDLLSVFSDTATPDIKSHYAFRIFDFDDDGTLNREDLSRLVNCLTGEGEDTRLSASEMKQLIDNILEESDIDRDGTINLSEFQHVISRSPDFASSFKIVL

[2] = biological target: T2, GST-CIB1 : F-scrambled peptide (Homo sapiens, UniProt Q99828); test: FP scrambled-peptide counter screen, 384-well format; conditions: F-scrambled peptide; for 384-well COUNTERSCREEN Confirm?: *: Curve in opposite direction; for IC50: read-out: 384-well COUNTERSCREEN IC50
T2 construct: made in house; host or cells: BL-21 plus RIL cells (E. coli)
T2 sequence (Q99828 1-191): T1 sequence (Q99828 1-191)

[3] = biological target: T3, CIB1 and αIIb interaction (CIB1-GST : F-αIIb peptide) (Homo sapiens, UniProt Q99828); test: FP assay, 1536-well qHTS format (primary and confirmatory screen); conditions: for CONFIRMATORY SCREEN Confirm?: YES/NO call; for CONFIRMATORY SCREEN Curve Class: qHTS curve class; for CONFIRMATORY SCREEN Curve Class / Curve Class: negative sign = inhibitory curve; for CONFIRMATORY SCREEN Efficacy (%) / Efficacy (%): negative = inhibition
T3 construct: made in house; host or cells: BL-21 plus RIL cells (E. coli)
T3 sequence (Q99828 1-191): T1 sequence (Q99828 1-191)

[4] = biological target: T2, GST-CIB1 : F-scrambled peptide; test: FP scrambled-peptide counter screen, 1536-well format; conditions: scrambled-peptide counterscreen; for COUNTERSCREEN Confirm?: YES/NO call; for COUNTERSCREEN Curve Class: qHTS curve class; for IC50: read-out: COUNTERSCREEN IC50
[5] = qHTS FP screen hits, Table S2, read-out: IC50
[6] = confirmatory screen, read-out: CONFIRMATORY SCREEN IC50
[7] = qHTS primary screen hits, Table S2
[8] = qHTS primary screen hits, Table S2, read-out: IC50
[9] = qHTS FP screen hits, Table S2, one class per curve where COUNT > 1
[10] = qHTS primary screen hits, Table S2, several classes where COUNT > 1

Structure (SMILES)	384-well SCREEN Efficacy (%) [1] [%]	384-well SCREEN Confirm? [1]	IC50 [1] [µM]	384-well COUNTERSCREEN Efficacy (%) [2] [%]	384-well COUNTERSCREEN Confirm? [2]	CONFIRMATORY SCREEN Confirm? ([3]; confirmatory screen)	CONFIRMATORY SCREEN Curve Class ([3]; confirmatory screen)	CONFIRMATORY SCREEN Efficacy (%) ([3]; confirmatory screen)	Efficacy (%) ([3]; qHTS FP screen hits, Table S2)	IC50 [3, 5] [µM]	COUNTERSCREEN Efficacy (%) [4] [%]	COUNTERSCREEN Confirm? [4]	COUNTERSCREEN Curve Class [4]	IC50 [2] [µM]	IC50 [3, 6] [µM]	Efficacy (%) [3, 7] [%]	IC50 [3, 8] [µM]	Curve Class [3, 9]	IC50 [4] [µM]	further results
CCOC(=O)c1ccc(O)c2ncc(-c3ccc(C(=N)N)cc3)cc12.O=C(O)C(F)(F)F [NCGC00241050-01]	87	YES	20	77	Inconclusive	YES	-2.2	-52	-77	44.7	-18	YES	4							
Cc1ccc(S(=O)(=O)Nc2cc([N+](=O)[O-])ccc2C(=O)Nc2nc(-c3ccccc3)cs2)cc1.O=C(O)C(F)(F)F [NCGC00262992-01]	135	YES	> 120	115		YES	-1.1	-97			42	YES	4	79.4	5.6	-34	10			Curve Class [3, 7]: -2.4
Cc1cc(=O)oc2cc(SC3=NS(=O)(=O)c4ccccc43)ccc12 [NCGC00189497-01]	52	YES	44.7	34		YES	-1.4	-39	-45	39.8	115	YES	3	10	20			-2.2	39.8	
Cc1ccc(Cl)cc1NC(=O)c1nc[nH]c1C(=O)Nc1nc2ccccc2[nH]1 [NCGC00244259-01]	48	YES	11.2	48		YES	-1.2	-28			-15	YES	4	15.8	7.9	-42	20			Curve Class [3, 10]: -2.2
CC[S+]([O-])c1nc(-c2cccc(OCc3ccccc3)c2)cc(C(F)(F)F)n1 (stereo not drawn) [NCGC00379201-03]	70	YES	0.32	30	YES*	YES	-1.2	-63	-39	2.2	21	YES	4	> 120	0.4			-1.2		
COc1cc(C(=O)NS(=O)(=O)c2ccccc2C)ccc1Cc1cn(C)c2ccc(NC(=O)OC3CCCC3)cc12 [NCGC00164547-06]	38	YES	9.6	60	YES*	YES	-1.2	-58			37	YES		1	14.1	-38	35.5		50.1	Curve Class [3, 10]: -2.4
Br.CCCCCCCCCCCCCCCC[N+](C)(C)C.[Br-] [NCGC00164283-07]	57	YES	15.8	44	YES	YES	-2.1	-114	-75	79.4	0	YES	4	2.5	70.8			-2.2		
COC(=O)[C@]12CCC(C)(C)C[C@H]1[C@H]1C(=O)C=C3[C@@]4(C)C=C(C#N)C(=O)C(C)(C)[C@@H]4CC[C@@]3(C)[C@]1(C)CC2 [NCGC00186460-01]	77	YES	3.5	29	YES	YES	-1.2	-71	-24	10.8	-36	YES	-1.2	> 120	7.1				14.1	
